Reference: patent publication US20240158412A1 (Faxian Therapeutics, LLC, priority 2021, published 2024)
pIC50: −log10 of the molar value.

The molecules below were run against USP7 (Homo sapiens, UniProt Q93009) (assay: biochemical).
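Further: fluorescence intensity readout of USP7 enzymatic activity, reaction incubated 90 min at room temperature.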

Sequence of USP7 (Q93009 whole entry): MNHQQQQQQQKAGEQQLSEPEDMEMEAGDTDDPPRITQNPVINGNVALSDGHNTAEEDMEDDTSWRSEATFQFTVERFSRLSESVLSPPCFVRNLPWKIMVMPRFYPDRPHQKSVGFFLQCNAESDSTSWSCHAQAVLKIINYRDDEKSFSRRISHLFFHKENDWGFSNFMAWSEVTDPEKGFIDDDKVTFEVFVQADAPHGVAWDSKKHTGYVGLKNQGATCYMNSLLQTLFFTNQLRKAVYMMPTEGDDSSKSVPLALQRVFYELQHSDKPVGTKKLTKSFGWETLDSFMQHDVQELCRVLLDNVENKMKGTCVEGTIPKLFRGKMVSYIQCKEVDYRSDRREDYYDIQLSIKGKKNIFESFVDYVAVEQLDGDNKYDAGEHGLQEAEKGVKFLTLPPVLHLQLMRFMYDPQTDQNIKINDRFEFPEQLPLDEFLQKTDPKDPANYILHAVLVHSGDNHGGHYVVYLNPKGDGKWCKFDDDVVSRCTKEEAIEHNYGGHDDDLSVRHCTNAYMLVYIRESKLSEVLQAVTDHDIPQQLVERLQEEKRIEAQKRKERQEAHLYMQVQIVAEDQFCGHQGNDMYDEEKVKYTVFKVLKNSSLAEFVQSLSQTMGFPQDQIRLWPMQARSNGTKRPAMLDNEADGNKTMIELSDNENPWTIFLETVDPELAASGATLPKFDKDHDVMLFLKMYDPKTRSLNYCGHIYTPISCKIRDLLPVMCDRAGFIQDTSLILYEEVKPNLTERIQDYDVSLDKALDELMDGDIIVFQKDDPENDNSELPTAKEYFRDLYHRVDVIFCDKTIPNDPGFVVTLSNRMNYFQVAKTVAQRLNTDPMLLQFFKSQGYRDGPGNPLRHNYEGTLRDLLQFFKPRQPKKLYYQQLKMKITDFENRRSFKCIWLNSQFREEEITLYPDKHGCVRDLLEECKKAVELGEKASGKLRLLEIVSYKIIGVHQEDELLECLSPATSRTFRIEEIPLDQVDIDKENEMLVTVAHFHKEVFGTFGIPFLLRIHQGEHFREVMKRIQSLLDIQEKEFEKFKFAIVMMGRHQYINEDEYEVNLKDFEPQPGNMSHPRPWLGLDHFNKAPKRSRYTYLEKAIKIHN

Row | Structure (SMILES) | pIC50
1 | CN1CC2(CC(N3CCCc4cc(Cl)cc(-c5ccnc6cc(CN7C(=O)CCC7=O)sc56)c43)C2)C1 [Example 138, 1-[[7-[6-chloro-1-(2-methyl-2-azaspiro[3.3]heptan-6-yl)-3,4-dihydro-2H-quinolin-8-yl]thieno[3,2-b]pyridin-2-yl]methyl]pyrrolidine-2,5-dione] | 7.00 to 8.00
2 | CN1C[C@@H](N2CCCc3cc(Cl)cc(-c4ccnc5cc(CN6C(=O)CCC6=O)sc45)c32)CC12CCC2 [Example 140, (S)-1-((7-(6-chloro-1-(5-methyl-5-azaspiro[3.4]octan-7-yl)-1,2,3,4-tetrahydroquinolin-8-yl)thieno[3,2-b]pyridin-2-yl)methyl)pyrrolidine-2,5-dione] | > 8.00
3 | O=C1CCC(=O)N1Cc1cc2nccc(-c3cc(Cl)cc4c3N([C@@H]3CN(CCO)C5(CCC5)C3)CCC4)c2s1 [Example 141, (S)-1-((7-(6-chloro-1-(5-(2-hydroxyethyl)-5-azaspiro[3.4]octan-7-yl)-1,2,3,4-tetrahydroquinolin-8-yl)thieno[3,2-b]pyridin-2-yl)methyl)pyrrolidine-2,5-dione] | > 8.00
4 | O=C1CCC(=O)N1Cc1cc2nccc(-c3cc(Cl)cc4c3N([C@@H]3CN(CCF)C5(CCC5)C3)CCC4)c2s1 [Example 142, (S)-1-((7-(6-chloro-1-(5-(2-fluoroethyl)-5-azaspiro[3.4]octan-7-yl)-1,2,3,4-tetrahydroquinolin-8-yl)thieno[3,2-b]pyridin-2-yl)methyl)pyrrolidine-2,5-dione] | > 8.00
5 | O=C1CCC(=O)N1Cc1cc2nccc(-c3cc(Cl)cc4c3N([C@@H]3CN(CCc5nnn[nH]5)C5(CCC5)C3)CCC4)c2s1 [Example 144, (S)-1-((7-(1-(5-(2-(1H-tetrazol-5-yl)ethyl)-5-azaspiro[3.4]octan-7-yl)-6-chloro-1,2,3,4-tetrahydroquinolin-8-yl)thieno[3,2-b]pyridin-2-yl)methyl)pyrrolidine-2,5-dione] | 7.00 to 8.00
6 | O=C1C2CC2C(=O)N1Cc1cc2nccc(-c3cc(Cl)cc4c3N([C@@H]3CNC5(CCC5)C3)CCC4)c2s1 (stereo partly drawn) [Example 145, 3-((7-(6-chloro-1-((S)-5-azaspiro[3.4]octan-7-yl)-1,2,3,4-tetrahydroquinolin-8-yl)thieno[3,2-b]pyridin-2-yl)methyl)-3-azabicyclo[3.1.0]hexane-2,4-dione] | > 8.00
7 | O=c1ccn(C2CC(F)(F)C2)c(=O)n1Cc1cc2nccc(-c3cc(Cl)cc4c3N([C@@H]3CNC5(CCC5)C3)CCC4)c2s1 [Example 146, (S)-3-((7-(6-chloro-1-(5-azaspiro[3.4]octan-7-yl)-1,2,3,4-tetrahydroquinolin-8-yl)thieno[3,2-b]pyridin-2-yl)methyl)-1-(3,3-difluorocyclobutyl)pyrimidine-2,4(1H,3H)-dione] | > 8.00
8 | CC1(C)C2C(=O)N(Cc3cc4nccc(-c5cc(Cl)cc6c5N([C@@H]5CNC7(CCC7)C5)CCC6)c4s3)C(=O)C21 (stereo partly drawn) [Example 147, 3-((7-(6-chloro-1-((S)-5-azaspiro[3.4]octan-7-yl)-1,2,3,4-tetrahydroquinolin-8-yl)thieno[3,2-b]pyridin-2-yl)methyl)-6,6-dimethyl-3-azabicyclo[3.1.0]hexane-2,4-dione] | 7.00 to 8.00
9 | O=c1ccn(C2CC2)c(=O)n1Cc1cc2nccc(-c3cc(Cl)cc4c3N([C@@H]3CNC5(CCC5)C3)CCC4)c2s1 [Example 148, (S)-3-((7-(6-chloro-1-(5-azaspiro[3.4]octan-7-yl)-1,2,3,4-tetrahydroquinolin-8-yl)thieno[3,2-b]pyridin-2-yl)methyl)-1-cyclopropylpyrimidine-2,4(1H,3H)-dione] | > 8.00
10 | O=c1ccn(C(F)F)c(=O)n1Cc1cc2nccc(-c3cc(Cl)cc4c3N([C@@H]3CNC5(CCC5)C3)CCC4)c2s1 [Example 149, (S)-3-((7-(6-chloro-1-(5-azaspiro[3.4]octan-7-yl)-1,2,3,4-tetrahydroquinolin-8-yl)thieno[3,2-b]pyridin-2-yl)methyl)-1-(difluoromethyl)pyrimidine-2,4(1H,3H)-dione] | > 8.00
11 | CN1CC(=O)N(Cc2cc3nccc(-c4cc(Cl)cc5c4N([C@@H]4CNC6(CCC6)C4)CCC5)c3s2)C1=O [Example 150, (S)-3-((7-(6-chloro-1-(5-azaspiro[3.4]octan-7-yl)-1,2,3,4-tetrahydroquinolin-8-yl)thieno[3,2-b]pyridin-2-yl)methyl)-1-methylimidazolidine-2,4-dione] | > 8.00
12 | O=C1COC(=O)N1Cc1cc2nccc(-c3cc(Cl)cc4c3N([C@@H]3CNC5(CCC5)C3)CCC4)c2s1 [Example 151, (S)-3-((7-(6-chloro-1-(5-azaspiro[3.4]octan-7-yl)-1,2,3,4-tetrahydroquinolin-8-yl)thieno[3,2-b]pyridin-2-yl)methyl)oxazolidine-2,4-dione] | > 8.00
13 | CC1(C)OC(=O)N(Cc2cc3nccc(-c4cc(Cl)cc5c4N([C@@H]4CNC6(CCC6)C4)CCC5)c3s2)C1=O [Example 152, (S)-3-((7-(6-chloro-1-(5-azaspiro[3.4]octan-7-yl)-1,2,3,4-tetrahydroquinolin-8-yl)thieno[3,2-b]pyridin-2-yl)methyl)-5,5-dimethyloxazolidine-2,4-dione] | 7.00 to 8.00
14 | Cc1cnn(Cc2cc3nccc(-c4cc(Cl)cc5c4N([C@@H]4CNC6(CCC6)C4)CCC5)c3s2)c(=O)c1 [Example 153, (S)-2-((7-(6-chloro-1-(5-azaspiro[3.4]octan-7-yl)-1,2,3,4-tetrahydroquinolin-8-yl)thieno[3,2-b]pyridin-2-yl)methyl)-5-methylpyridazin-3(2H)-one] | > 8.00
15 | O=c1cc(CC(F)(F)F)cnn1Cc1cc2nccc(-c3cc(Cl)cc4c3N([C@@H]3CNC5(CCC5)C3)CCC4)c2s1 [Example 154, (S)-2-((7-(6-chloro-1-(5-azaspiro[3.4]octan-7-yl)-1,2,3,4-tetrahydroquinolin-8-yl)thieno[3,2-b]pyridin-2-yl)methyl)-5-(2,2,2-trifluoroethyl)pyridazin-3(2H)-one] | > 8.00
16 | O=C1[C@@H]2[C@H]3CC[C@H](C3)[C@@H]2C(=O)N1Cc1cc2nccc(-c3cc(Cl)cc4c3N([C@@H]3CNC5(CCC5)C3)CCC4)c2s1 [Example 155, (3aR,4S,7R,7aS)-2-((7-(6-chloro-1-((S)-5-azaspiro[3.4]octan-7-yl)-1,2,3,4-tetrahydroquinolin-8-yl)thieno[3,2-b]pyridin-2-yl)methyl)hexahydro-1H-4,7-methanoisoindole-1,3(2H)-dione] | 7.00 to 8.00
17 | CC1(C)OC(=O)C(Cc2cc3nccc(-c4cc(Cl)cc5c4N([C@@H]4CNC6(CCC6)C4)CCC5)c3s2)C(=O)O1 [Example 156, (S)-5-((7-(6-chloro-1-(5-azaspiro[3.4]octan-7-yl)-1,2,3,4-tetrahydroquinolin-8-yl)thieno[3,2-b]pyridin-2-yl)methyl)-2,2-dimethyl-1,3-dioxane-4,6-dione] | 6.00 to 7.00
18 | O=C1OC[C@@H](C(F)(F)F)N1Cc1cc2nccc(-c3cc(Cl)cc4c3N([C@@H]3CNC5(CCC5)C3)CCC4)c2s1 [Example 157, (S)-3-((7-(6-chloro-1-((S)-5-azaspiro[3.4]octan-7-yl)-1,2,3,4-tetrahydroquinolin-8-yl)thieno[3,2-b]pyridin-2-yl)methyl)-4-(trifluoromethyl)oxazolidin-2-one] | 7.00 to 8.00
19 | O=C1OC[C@H](C(F)(F)F)N1Cc1cc2nccc(-c3cc(Cl)cc4c3N([C@@H]3CNC5(CCC5)C3)CCC4)c2s1 [Example 158, (R)-3-((7-(6-chloro-1-((S)-5-azaspiro[3.4]octan-7-yl)-1,2,3,4-tetrahydroquinolin-8-yl)thieno[3,2-b]pyridin-2-yl)methyl)-4-(trifluoromethyl)oxazolidin-2-one] | > 8.00
20 | O=C1CN(C2CC(F)(F)C2)C(=O)N1Cc1cc2nccc(-c3cc(Cl)cc4c3N([C@@H]3CNC5(CCC5)C3)CCC4)c2s1 [Example 159, (S)-3-((7-(6-chloro-1-(5-azaspiro[3.4]octan-7-yl)-1,2,3,4-tetrahydroquinolin-8-yl)thieno[3,2-b]pyridin-2-yl)methyl)-1-(3,3-difluorocyclobutyl)imidazolidine-2,4-dione] | > 8.00
21 | O=C1CCC(=O)N1Cc1cc2nccc(-c3cc(C(F)(F)F)cc4c3N([C@@H]3CNC5(CCC5)C3)CCC4)c2s1 [Example 163, (S)-1-((7-(1-(5-azaspiro[3.4]octan-7-yl)-6-(trifluoromethyl)-1,2,3,4-tetrahydroquinolin-8-yl)thieno[3,2-b]pyridin-2-yl)methyl)pyrrolidine-2,5-dione] | > 8.00
22 | O=C1CCC(=O)N1Cc1cc2nccc(-c3cc(Cl)cc4c3N([C@@H]3CNC5(CCC5)C3)C[C@@H]3C[C@H]43)c2s1 [Example 165a, 1-((7-((1aR,7bS)-6-chloro-3-((S)-5-azaspiro[3.4]octan-7-yl)-1a,2,3,7b-tetrahydro-1H-cyclopropa[c]quinolin-4-yl)thieno[3,2-b]pyridin-2-yl)methyl)pyrrolidine-2,5-dione] | 7.00 to 8.00
23 | O=C1CCC(=O)N1Cc1cc2nccc(-c3cc(Cl)cc4c3N([C@H]3CNC5(CCC5)C3)C[C@@H]3C[C@H]43)c2s1 [Example 165b, 1-((7-((1aR,7bS)-6-chloro-3-((R)-5-azaspiro[3.4]octan-7-yl)-1a,2,3,7b-tetrahydro-1H-cyclopropa[c]quinolin-4-yl)thieno[3,2-b]pyridin-2-yl)methyl)pyrrolidine-2,5-dione] | 6.00 to 7.00
24 | O=C1CCC(=O)N1Cc1cc2nccc(-c3cc(Cl)cc4c3N([C@@H]3CNC5(CCC5)C3)C[C@H]3C[C@@H]43)c2s1 [Example 165c, 1-((7-((1aS,7bR)-6-chloro-3-((S)-5-azaspiro[3.4]octan-7-yl)-1a,2,3,7b-tetrahydro-1H-cyclopropa[c]quinolin-4-yl)thieno[3,2-b]pyridin-2-yl)methyl)pyrrolidine-2,5-dione] | > 8.00
25 | Cc1cnn(Cc2cc3nccc(-c4cc(Cl)cc5c4N([C@@H]4CNC6(CCC6)C4)C[C@H]4C[C@@H]54)c3s2)c(=O)c1 [Example 166, 2-((7-((1aS,7bR)-6-chloro-3-((S)-5-azaspiro[3.4]octan-7-yl)-1a,2,3,7b-tetrahydro-1H-cyclopropa[c]quinolin-4-yl)thieno[3,2-b]pyridin-2-yl)methyl)-5-methylpyridazin-3(2H)-one] | > 8.00
